Test results from US20120121591A1 (priority 2009, published 2012).
Positions of bridges follow the written chain, without caps; N, C: chain ends. Non-standard residues stand in square brackets, D forms with d. Residues, ends and D or L forms follow the SMILES beside them. Nva = CCC[C@H](N)C(=O)O

Key:
[1] = tested on: IL-2 secretion from T cells in human whole blood; format: cell-based
[2] = tested on: IFN-g secretion from T cells in human whole blood; format: cell-based
hKv1.3 = hKv1.3 (Homo sapiens, UniProt P22001); experiment: cell-based; format: cell-based
hKv1.1 = hKv1.1 (Homo sapiens, UniProt Q09470); experiment: cell-based; details: Kv1.1 (IWQ) IC50 (nM, Avg)
Sequence of hKv1.1 (Q09470 whole entry): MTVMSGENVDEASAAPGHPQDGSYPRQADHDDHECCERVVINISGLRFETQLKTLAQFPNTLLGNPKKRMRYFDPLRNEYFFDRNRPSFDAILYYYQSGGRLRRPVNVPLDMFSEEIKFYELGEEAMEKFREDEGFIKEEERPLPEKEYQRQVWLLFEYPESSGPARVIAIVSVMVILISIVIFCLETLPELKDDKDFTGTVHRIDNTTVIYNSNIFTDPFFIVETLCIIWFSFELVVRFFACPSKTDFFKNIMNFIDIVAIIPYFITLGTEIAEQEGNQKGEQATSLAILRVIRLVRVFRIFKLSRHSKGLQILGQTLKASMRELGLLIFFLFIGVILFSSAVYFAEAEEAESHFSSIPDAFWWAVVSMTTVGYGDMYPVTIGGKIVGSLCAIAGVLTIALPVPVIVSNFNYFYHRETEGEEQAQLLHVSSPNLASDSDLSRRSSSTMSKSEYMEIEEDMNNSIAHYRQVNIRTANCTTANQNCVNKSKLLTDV

Sequence of hKv1.3 (P22001 whole entry): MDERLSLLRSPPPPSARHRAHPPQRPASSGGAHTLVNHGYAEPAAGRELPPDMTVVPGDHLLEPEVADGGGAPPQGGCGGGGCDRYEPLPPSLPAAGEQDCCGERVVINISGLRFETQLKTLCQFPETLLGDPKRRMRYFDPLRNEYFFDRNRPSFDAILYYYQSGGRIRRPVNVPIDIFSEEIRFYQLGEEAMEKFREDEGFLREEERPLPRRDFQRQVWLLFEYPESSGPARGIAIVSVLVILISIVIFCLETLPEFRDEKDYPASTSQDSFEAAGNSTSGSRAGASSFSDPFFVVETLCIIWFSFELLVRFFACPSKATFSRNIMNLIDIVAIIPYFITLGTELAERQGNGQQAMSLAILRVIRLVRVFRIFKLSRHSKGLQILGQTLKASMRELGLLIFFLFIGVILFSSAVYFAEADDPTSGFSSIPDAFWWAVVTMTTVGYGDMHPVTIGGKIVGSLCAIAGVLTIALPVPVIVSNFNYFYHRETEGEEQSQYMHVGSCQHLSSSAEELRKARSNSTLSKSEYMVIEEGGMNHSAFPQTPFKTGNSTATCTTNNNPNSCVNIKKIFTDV

## CCC[C@@H]1NC(=O)[C@H](CO)NC(=O)[C@H]([C@@H](C)O)NC(=O)[C@H](CCCNC(=N)N)NC(=O)[C@@H]2CSSC[C@@H]3NC(=O)[C@H]([C@@H](C)O)NC(=O)[C@H](CCCCN)NC(=O)[C@H](CCCNC(=N)N)NC(=O)[C@H](CSSC[C@H](NC(=O)[C@H](CCC(=O)O)NC(=O)[C@H](CO)NC(=O)[C@H](C(C)C)NC(=O)[C@@H]4CCCN4C(=O)[C@H]([C@@H](C)CC)NC(=O)[C@H](CC(C)C)NC(=O)[C@H](CC(=O)O)NC(=O)[C@H](CCCCN)NC(=O)[C@@H](NC(=O)[C@@H](NC(=O)[C@@H](N)CCCNC(=N)N)[C@@H](C)O)CSSC[C@@H](C(N)=O)NC(=O)[C@H](CO)NC(=O)CNC3=O)C(=O)N[C@@H]([C@@H](C)O)C(=O)N[C@@H](CC(=O)O)C(=O)N[C@@H]([C@@H](C)CC)C(=O)N[C@@H](CCCCN)C(=O)N2)NC(=O)[C@H](CC(C)C)NC(=O)[C@H](CC(N)=O)NC(=O)[C@H](CC(C)C)NC(=O)[C@H](CCCNC(=N)N)NC(=O)[C@H](Cc2ccc(O)cc2)NC(=O)[C@H](CCCCN)NC1=O [[Lys16, Nva21]HmK-amide] (H-RTCKDLIPVSECTDIKCRTS[Nva]KYRLNLCRKTCGSC-NH2; disulfide 3-35, 12-28, 17-32)
[1]
  WB (IL-2) Potency Relative to ShK: 148.53
[1]; read-out: WB (IL-2) IC50 (nM, Avg)
  IC50: 6.39 nM
[2]
  WB (IFNg) Potency Relative to ShK: 188.96
[2]; read-out: WB (IFNg) IC50 (nM, Avg)
  IC50: 9.83 nM
hKv1.3
  Kv1.1/Kv1.3 Selectivity Ratio: 0.025
hKv1.3; Kv1.3 (IWQ) IC50 (nM, Avg)
  IC50: 23 nM
hKv1.1
  IC50: 0.58 nM
